From patent US7884067B2, “Peptides derived from cadherin and methods of use thereof” (Mount Sinai School of Medicine of New York University, priority 2001, dated 2011)

What was measured:
N-cadherin [1] = test: N-cadherin processing in fibroblast cultures (Western blot, C32); format: cell-based, mouse; conditions: GM6001, FIG. 7B lanes 5 and 6
Procedure: Extracts from PS1+/+ or PS1−/− mouse embryos were probed on WBs with either anti-cytoplasmic N-cadherin antibody (FIG. 7A, upper panel) or anti-PS I/CTF antibody 33B10 (FIG. 7A, lower panel). Extracts from PS1+/+ or PS1−/− fibroblast cultures were incubated for 16 hours in the absence or presence of DMSO, L-685,458 (0.5 μM) and probed on WBs with either C32 or 33B10 antibodies.

E-cadherin [2] = test: E-cadherin cleavage in staurosporine-treated (apoptotic) A431 cells (Western blot); format: cell-based, human
Procedure: Cell Cultures and transfections. Cells were grown in Dulbecco's Modified Eagle Medium (DMEM) plus 10% fetal bovine serum, penicillin and streptomycin in 5% CO2 at 37° C. […] A431 cells were from American Type Culture Collection. […] A431D cells stably transfected with wild-type or GGG759-761AAA mutant E-cadherin were provided by Dr. A. B. Reynolds.
(§1) Immunoprecipitations (IPs), immunoblotting, immunofluorescence and confocal microscopy. For WB analysis of cell extracts, cells were washed with PBS and then solubilized in RIPA buffer. For IPs cells were solubilized in Hepes buffer (25 mM Hepes [pH 7.4], 150 mM NaCl, 1× Complete protease inhibitor cocktail, Roche) containing 1% digitonin (IPs with I-R222 and PI-R222 antibodies) or 1% Triton X-100 (IPs with β-catenin and desmoglein antibodies). Following centrifugation at 17,000×g for 10 min, supernatants (1 mg protein) were pre-cleared with protein A- or protein G-agarose (Pierce) for 2 hours. Supernatants were then incubated with antibodies overnight at 4° C. and treated for 2 hours with protein A-agarose (polyclonal antibodies) or with protein G-agarose (monoclonal antibodies). IPs were washed with Hepes buffer containing either 1% digitonin or 1% Triton X-100 and analyzed by SDS-PAGE. Immunofluorescence and confocal microscopy was performed as described by Georgakopoulos et al., (1999). Briefly, cells were plated on 22×22 mm collagen-coated glass coverslips, fixed in cold methanol for 10 min at −20° C. Following washing in TBS (25 mM Tris-HCl [pH 7.4], 150 mM NaCl), cells were treated with 10% goat serum in SuperBlock (Pierce) for 1 hour, incubated overnight with primary antibody (1:100), washed in TBS and then were incubated with species specific Alexa Fluor™ secondary antibody conjugates (Molecular Probes). Cells were washed with TBS, mounted with Prolong antifade kit (Molecular Probes), and photographed on a Leica confocal laser scanning microscope.
Conditional media (20 μl) from A431 cells cultured in the absence or presence of […] and treated with SDS as above were probed on Western blots with anti-E-cadherin ectodomain antibody H108.

N-cadherin [3] = test: N-Cad/CTF2 production in rat primary neuronal cultures after stimulation; format: cell-based; design: N-Cad/CTF2 production on stimulation / K+-induced increase in N-Cad/CTF2 / L-glutamate-induced increase in N-Cad/CTF2: unit of the concentration uncertain; conditions: for N-Cad/CTF2 production on stimulation: 15 minutes stimulation with KCl (50 (unit uncertain)), L-Glutamate (50 (unit uncertain)) or NMDA (50 (unit uncertain))
Procedure: Primary, neuronal cultures. Mixed hippocampal and cortical neuronal cultures were prepared from E18 mouse or rat brains as described by Banker and Goslin (1991) Culturing Nerves Cells, London, MIT Press. Neurons were maintained 10 days in vitro in glial conditioned MEM containing 2% glucose and N2 supplements as described by Bottenstein and Sato (1979) Proc. Natl. Acad. Sci. USA 76: 514-517, and then were stimulated for 15 minutes with Mg2+-free Hanks' balanced salt solution (HBSS, Sigma) containing KCl (50 mM), L-Glutamate ([…]) or NMDA ([…]). D-APV ([…]) was applied 15 minutes before stimulation.
In vitro γ-secretase-like ε-cleavage assay. Cells were washed in PBS, resuspended in 1 ml of 4° C. hypotonic buffer (10 mM MOPS, pH 7.0, 10 mM KCl) and homogenized on ice. A post-nuclear supernatant was prepared by centrifugation at 1000×g for 15 minutes at 4° C. Crude membranes were isolated from the post-nuclear supernatant by centrifugation at 16,000×g for 40 minutes at 4° C. The membranes were then resuspended in […] of assay buffer (150 mM sodium citrate, pH 6.4, 1× Complete protease inhibitor cocktail), and incubated at 37° C. for 2 hours. Samples were either analyzed directly by WB or separated into pellet (P100) and supernatant (S100) fractions by ultracentrifugation for 1 hour at 100,000×g at 4° C. The S100 and P100 fractions were then analyzed by WB.
Rat brain neurons were pre-incubated in the absence (−) or presence (+) of D-APV and then stimulated with either KCl, L-glutamate (L-gly) or NMDA. Membranes from these neurons were used in in vitro assays for production of N-Cad/CTF2.

A431 cells = test: Laser scanning confocal microscopy of ionomycin-induced cell-cell dissociation; format: cell-based, human; conditions: ionomycin 45 minutes
Procedure: as §1
The PS1/γ-secretase role in the disassembly of CAJ was further examined using laser scanning confocal microscopy (LSCM). A431 cells were pre-incubated for 30 minutes in the absence or presence of L-685,458 and then treated for 45 minutes with ionomycin. Following the ionomycin-induced cell-cell dissociation, the distribution of PS1, E-cadherin, β-catenin and α-catenin was analyzed by LSCM using the constant detector setting. […]

E-cadherin [4] = test: Ionomycin treatment of A431D cells transfected with WT or GGG759-761AAA mutant E-cadherin; format: cell-based; conditions: ionomycin 45 minutes
Procedure: Cell Cultures and transfections. Cells were grown in Dulbecco's Modified Eagle Medium (DMEM) plus 10% fetal bovine serum, penicillin and streptomycin in 5% CO2 at 37° C. Fibroblast cell lines derived either from wild-type (WT) (PS1+/+) or PS1 knock-out (PS1−/−) mice were stably transfected with human E-cadherin as described by Baki et al., (2001). A431 cells were from American Type Culture Collection. Stable transfectants of PS1 cDNA in HEK293 cells were prepared as described by Georgakopoulos et al., (1999). A431D cells stably transfected with wild-type or GGG759-761AAA mutant E-cadherin were provided by Dr. A. B. Reynolds.
A431D cells stably transfected with WT E-cadherin or with the E-cadherin mutant were incubated in the absence or presence of ionomycin for 45 minutes and RIPA extracts were probed on Western blots with C36 antibody. Cytosolic fractions were probed with antibodies against E-cadherin (C36), β-catenin or α-catenin. […] Furthermore, no soluble E-Cad/CTF2 was detected in mutant transfectants either in the presence or absence of ionomycin. Thus, PS1 binding to E-cadherin is required for the PS1/γ-secretase cleavage of E-cadherin and for the release of E-Cad/CTF2, β-catenin and α-catenin to the soluble cytosol.

[5] = system: E-cadherin/catenin cytoskeletal complex; test: Ionomycin-induced CAJ disassembly in A431 cells, subcellular fractionation and Western blot; format: cell-based, human; conditions: ionomycin 10 μM, absence of inhibitor
Procedure: Subcellular fractionation. Confluent A431 cells (one 100 mm dish) were rinsed and scraped with 4° C. phosphate-buffered saline (PBS). Cells were then placed into 1 ml of buffer A (20 mM Tris-HCl [pH 7.5], 0.25 M sucrose, 10 mM EGTA, 2 mM EDTA, 1× Complete protease inhibitor cocktail, Roche), passed through a 27 gauge needle 10 times, and the obtained cell lysate was centrifuged at 500×g for 10 min at 4° C. The supernatant was then centrifuged at 120,000×g for 45 min at 4° C. to separate the cytosolic and crude membrane fractions. The pellet (crude membrane fraction) was washed twice with buffer A and resuspended by sonication in […] of buffer A containing 1% Triton X-100. The suspension was incubated at 4° C. for 30 min and then centrifuged at 120,000×g for 45 min at 4° C. to separate the membrane and Triton X-100-insoluble fractions. The pellet (Triton X-100-insoluble fraction) was washed twice with buffer A and solubilized by sonication in RIPA buffer. […] of proteins from the different fraction were analyzed by SDS-PAGE.
In stable cell-cell adhesion, the E-cadherin/β-catenin complex of the CAJ is anchored to the actin cytoskeleton via catenin and this association is manifested by the insolubility of the complex components in Triton X-100 (Baki et al., (2001)). Induction of apoptosis or calcium influx disrupts cadherin-mediated cell-cell adhesion by cleaving cadherin and disassembling the CAJ complexes. To determine whether the γ-secretase cleavage of E-cadherin is involved in the CAJ disassembly, calcium influx was induced with ionomycin (10 μM) in A431 cells preincubated for 30 minutes in the absence or presence of the γ-secretase inhibitor L-685,458. Cell extracts were fractionated, and analyzed on Western blots with antibodies against cytoplasmic E-cadherin C36 or β- and α-catenins. […] In addition, L-685,458 delayed the ionomycin-induced decrease of cytoskeletal β-catenin and α-catenin and inhibited their release to the soluble cytosol.

Aβ40 and Aβ42 = test: Secreted Aβ ELISA in CHO cells expressing Swedish APP mutant; format: cell-based; conditions: transient transfection, vs vector cDNA, FIG. 4B
Procedure: CHO cells expressing Swedish APP mutant were transiently transfected with vector cDNA (vector), full length E-cadherin (E-cadherin), a cDNA construct encoding the transmembrane and ectodomain sequence of E-cadherin (EC0) or a cDNA expressing the entire cytoplasmic sequence of E-cadherin (CTF2). Secreted Aβ40 and Aβ42 were determined by ELISA. Each value is a mean±SD from three assays each performed in duplicate. […] Expression of transfected proteins in swCHO cells was monitored by Western blotting.

Compound: CNC(=O)[C@H](Cc1c[nH]c2ccccc12)NC(=O)[C@@H](CC(=O)NO)CC(C)C [GM6001]
- N-Cad/CTF1 (N-cadherin [1]): decreased
- full length N-cadherin (N-cadherin [1]): increased
- production of the 38 kDa fragment (E-Cad/CTF1) (E-cadherin [2]; 30 minutes preincubation with GM6001 (2.5 μM), then STS 6 hours): inhibited
- secreted 95 kDa fragment (E-Cad/NTF1), effect of MMP inhibitor in STS-treated cells (E-cadherin [2]; antibody H108): inhibited

Compound: [Cl-].[K+] [KCl]
- N-Cad/CTF2 production on stimulation (N-cadherin [3]): stimulated

Compound: N[C@@H](CCC(=O)O)C(=O)O [L-glutamate, L-Glutamate]
- N-Cad/CTF2 production on stimulation (N-cadherin [3]): induced an increase in N-Cad/CTF2

Compound: C[C@H](CCC(=O)O)C[C@H](C)C[C@H](C)C(=O)/C=C(\O)[C@H](C)C[C@H](C)C/C=C/[C@@H](C)[C@@H](O)[C@@H](C)[C@@H](O)C[C@@H]1CC[C@@](C)([C@H]2CC[C@@](C)([C@@H](C)O)O2)O1 [ionomycin]
- cell-cell adhesion (A431 cells): disrupted cell-cell adhesion
- plasma membrane staining of PS1, E-cadherin, β-catenin and α-catenin epitopes (A431 cells): decreased plasma membrane staining of all epitopes
- soluble E-Cad/CTF2, β-catenin and α-catenin in cytosolic fractions (E-cadherin [4]; cells expressing WT E-cadherin): significant increase
- soluble β- or α-catenin in cytosolic fractions (E-cadherin [4]; cells expressing mutant E-cadherin GGG759-761AAA): no ionomycin-induced increase
- N-Cad/CTF2 (N-cadherin [3]; treatment of rat primary neuronal cultures with ionomycin): increased N-Cad/CTF2
- cytoskeletal (Triton X-100-insoluble) fraction of full-length E-cadherin and E-Cad/CTF1 [5]: time-dependent decrease
- cytoskeletal association (Triton X-100-insoluble fraction) of β-catenin and α-catenin [5]: decreased
- soluble cytosolic E-Cad/CTF2 [5]: corresponding increase
- soluble cytosolic levels of β-catenin and α-catenin [5]: significant increase

Compound: CTF-2: cDNA expressing the entire cytoplasmic sequence of E-cadherin
- secreted Aβ40 (Aβ40 and Aβ42): significantly inhibited
- secreted Aβ42 (Aβ40 and Aβ42): significantly inhibited

Compound: D(−)-2-amino-5-phosphonovalerate [D-APV]
- K+-induced increase in N-Cad/CTF2 (N-cadherin [3]; D-APV (100 (unit uncertain)) applied 15 minutes before stimulation with KCl): inhibited
- L-glutamate-induced increase in N-Cad/CTF2 (N-cadherin [3]; D-APV (100 (unit uncertain)) applied 15 minutes before stimulation with L-glutamate): blocked

Compound: Z-DEVD-FMK
- 29 kDa fragment (E-Cad/CTT3) (E-cadherin [2]; 30 minutes preincubation with Z-DEVD-FMK (50 μM), then STS 6 hours): inhibited
